Here are results for 25 compounds from patent US12503436B2, “Compounds and compositions for treating conditions associated with STING activity” (NOVARTIS PHARMA AG, priority 2021, dated 2025).

SMILES strings stand for the structures.

The target in the test is STING (Homo sapiens, UniProt Q86WV6, G230A/H232R/R293Q/R71H). The test is described as follows: STING reporter assay in THP1-Dual KO-IFNAR2 cells (2′3′cGAMP stimulation, luciferase reporter). The format is cell-based. Particulars: 15 μM 2′3′cGAMP stimulation, 24 h, read-out: Pharmaron, THP1_IFNAR2 STING 24 h Luci Normalized: GeoMean EC50. In short, it runs like this:
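EC50 from secreted luciferase (QUANTI-Luc Plus luminescence of supernatant) after 24 h at 37 °C, 5% CO2. Cells: THP1-Dual KO-IFNAR2, treated with compound (0.0017-100 μM final) plus lipofected 2′3′cGAMP at 15 μM final.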
Background: In a reporter assay the amount or activity of a reporter protein is the signal.

STING, sequence (Q86WV6 whole entry R71H/G230A/H232R/R293Q): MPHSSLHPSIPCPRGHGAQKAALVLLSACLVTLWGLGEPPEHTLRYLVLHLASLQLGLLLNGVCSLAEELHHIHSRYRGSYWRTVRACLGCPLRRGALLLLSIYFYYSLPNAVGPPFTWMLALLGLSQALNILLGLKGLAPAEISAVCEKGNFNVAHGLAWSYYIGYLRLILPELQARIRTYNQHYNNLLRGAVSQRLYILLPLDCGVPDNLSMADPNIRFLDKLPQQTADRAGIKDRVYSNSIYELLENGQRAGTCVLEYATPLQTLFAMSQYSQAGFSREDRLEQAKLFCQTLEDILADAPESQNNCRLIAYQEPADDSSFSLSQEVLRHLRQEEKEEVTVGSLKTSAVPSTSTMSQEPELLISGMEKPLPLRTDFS

What is called EC50 is the concentration needed to bring the measured effect to its halfway point. Take `O=C(Nc1c[nH]c2ccc(OCCc3ccc(C(F)(F)F)nc3)cc12)C1CN(CC(F)(F)F)C1` [Compound 195, 1-(2,2,2-trifluoroethyl)-N-(5-(2-(6-(trifluoromethyl)pyridin-3-yl)ethoxy)-1H-indol-3-yl)azetidine-3-carboxamide]: the EC50 was 200 to 1000 nM.
As for `N#C[C@H]1C[C@@H]1C(=O)Nc1c[nH]c2ccc(O[C@H]3C[C@H](c4ccc(C(F)(F)F)cc4)C3)cc12` [Compound 562, (1s,2s)-2-cyano-N-(5-((trans)-3-(4-(trifluoromethyl)phenyl)cyclobutoxy)-1H-indol-3-yl)cyclopropane-1-carboxamide], the EC50 is 200 to 1000 nM.
For the compound `CC(=O)Nc1c[nH]c2ccc(OC(C)c3ccc(C(F)(F)F)cc3)cc12` (stereo not shown) [Compound 497, N-(5-(1-(4-(trifluoromethyl)phenyl)ethoxy)-1H-indol-3-yl)acetamide], the EC50 fell in the range of 1000 to 5000 nM.
For the compound `O=C(Nc1c[nH]c2ccc(O[C@H]3C[C@@H](c4ccc(C(F)(F)F)cc4)C3)cc12)C1CC1(F)F` (stereo partly drawn) [Compound 364, 2,2-difluoro-N-(5-(cis-3-(4-(trifluoromethyl)phenyl)cyclobutoxy)-1H-indol-3-yl)cyclopropane-1-carboxamide], the EC50 is 40 to 200 nM.
Take `COC1CC(C(=O)Nc2c[nH]c3ccc(OCc4ccc(C(F)(F)F)cc4)cc23)C1` (stereo not shown) [Compound 352, 3-methoxy-N-(5-((4-(trifluoromethyl)benzyl)oxy)-1H-indol-3-yl)cyclobutane-1-carboxamide]: the EC50 lay within 40 to 200 nM.
For the compound `CC[C@@H](O)C(=O)Nc1c[nH]c2ccc(OCCc3ccc(C(F)(F)F)cc3)cc12` [Compound 431, (R)-2-hydroxy-N-(5-(4-(trifluoromethyl)phenethoxy)-1H-indol-3-yl)butanamide], the EC50 was in the range of 40 to 200 nM.
Regarding `O=C(Nc1c[nH]c2ccc(O[C@H]3C[C@H](c4ccc(C(F)(F)F)cc4)C3)cc12)C1CC(Cl)C1` (stereo partly drawn) [Compound 554, 3-chloro-N-(5-(trans-3-(4-(trifluoromethyl)phenyl)cyclobutoxy)-1H-indol-3-yl)cyclobutane-1-carboxamide], the EC50 lay in the range of 200 to 1000 nM.
Then `C[C@H]1OC[C@H]1C(=O)Nc1c[nH]c2ccc(OCC[C@@H]3C[C@@H]4CN(CC(F)(F)F)C[C@@H]4C3)cc12` [Compound 510, (2R,3R)-2-methyl-N-(5-(2-((3aR,5r,6aS)-2-(2,2,2-trifluoroethyl)octahydrocyclopenta[c]pyrrol-5-yl)ethoxy)-1H-indol-3-yl)oxetane-3-carboxamide], with 200 to 1000 nM; and `CC1(C(=O)Nc2c[nH]c3ccc(OCc4ccc(C(F)(F)F)cc4)cc23)COC1` [Compound 166, 3-methyl-N-(5-((4-(trifluoromethyl)benzyl)oxy)-1H-indol-3-yl)oxetane-3-carboxamide], with 40 to 200 nM.
Then `O=C(Nc1c[nH]c2ccc(OCc3ccc(C(F)(F)F)cc3)cc12)C1CC1(F)Cl` (stereo not shown) [Compound 318, 2-chloro-2-fluoro-N-(5-((4-(trifluoromethyl)benzyl)oxy)-1H-indol-3-yl)cyclopropane-1-carboxamide], with 200 to 1000 nM; and `CC(=O)Nc1c[nH]c2ccc(COCC3CCN(CC(F)(F)F)CC3)cc12` [Compound 268, N-(5-(((1-(2,2,2-trifluoroethyl)piperidin-4-yl)methoxy)methyl)-1H-indol-3-yl)acetamide], with 1000 to 5000 nM; and `O=C(Nc1c[nH]c2ccc(CC(O)Cc3ccc(C(F)(F)F)cc3)cc12)C1CC1` (single isomer, unassigned) [Compound 200, N-(5-(2-hydroxy-3-(4-(trifluoromethyl)phenyl)propyl)-1H-indol-3-yl)cyclopropanecarboxamide], with 200 to 1000 nM.
`CO[C@H]1C[C@@H](C(=O)Nc2c[nH]c3ccc(CCOc4ccc(C(F)(F)F)cc4)cc23)C1` [Compound 221, cis-3-methoxy-N-(5-(2-(4-(trifluoromethyl)phenoxy)ethyl)-1H-indol-3-yl)cyclobutane-1-carboxamide]: the EC50 lay in the range of 40 to 200 nM.
In the case of `C[C@]1(C(=O)Nc2c[nH]c3ccc(OCC[C@@H]4C[C@@H]5CN(CC(F)(F)F)C[C@@H]5C4)cc23)C[C@@H](CO)C1` [Compound 511, (1s,3S)-3-(hydroxymethyl)-1-methyl-N-(5-(2-((3aR,5r,6aS)-2-(2,2,2-trifluoroethyl)octahydrocyclopenta[c]pyrrol-5-yl)ethoxy)-1H-indol-3-yl)cyclobutane-1-carboxamide], the EC50 was 200 to 1000 nM.
On to `CC(=O)Nc1c[nH]c2ccc(CCO[C@@H]3C[C@@H]4CN(CC(F)(F)F)C[C@@H]4C3)cc12` [Compound 293], for which the EC50 is 5000 to 100000 nM.
`CC(=O)Nc1c[nH]c2ccc(OCCc3cnc(N4CCC(F)(F)CC4)c(F)c3)cc12` [Compound 254, N-(5-(2-(6-(4,4-difluoropiperidin-1-yl)-5-fluoropyridin-3-yl)ethoxy)-1H-indol-3-yl)acetamide]: the EC50 fell in the range of 40 to 200 nM.
`N#CC1CCC1C(=O)Nc1c[nH]c2ccc(O[C@H]3C[C@H](c4ccc(C(F)(F)F)cc4)C3)cc12` (stereo partly drawn) [Compound 467, 2-cyano-N-{5-[(1R,3R)-3-[4-(trifluoromethyl)phenyl]cyclobutoxy]-1H-indol-3-yl}cyclobutane-1-carboxamide]: the EC50 fell in the range of 200 to 1000 nM.
As to `CC(=O)Nc1c[nH]c2ccc(CCOc3ccc(C(F)(F)F)nc3)cc12` [Compound 232, N-(5-(2-((6-(trifluoromethyl)pyridin-3-yl)oxy)ethyl)-1H-indol-3-yl)acetamide], the EC50 was in the range of 1000 to 5000 nM.
In the case of `CC1(C(=O)Nc2c[nH]c3ccc(C(O)CCc4ccc(C(F)(F)F)cc4)cc23)CC1` (stereo not shown) [Compound 172, N-(5-(1-hydroxy-3-(4-(trifluoromethyl)phenyl)propyl)-1H-indol-3-yl)-1-methylcyclopropane-1-carboxamide] it was 200 to 1000 nM; in that of `CC(=O)Nc1c[nH]c2ncc(OCCc3ccc(C(F)(F)F)cc3)cc12` [Compound 267, N-(5-(4-(trifluoromethyl)phenethoxy)-1H-pyrrolo[2,3-b]pyridin-3-yl)acetamide], 1000 to 5000 nM; in that of `CC(=O)Nc1c[nH]c2ccc(CCOc3ccc(C)cc3)cc12` [Compound 228, N-(5-(2-(p-tolyloxy)ethyl)-1H-indol-3-yl)acetamide], 200 to 1000 nM.
As to `O=C(Nc1c[nH]c2ccc(CCOc3ccc(C(F)(F)F)cc3)cc12)C1CN(CC(F)(F)F)C1` [Compound 219, 1-(2,2,2-trifluoroethyl)-N-(5-(2-(4-(trifluoromethyl)phenoxy)ethyl)-1H-indol-3-yl)azetidine-3-carboxamide], the EC50 is 40 to 200 nM.
Consider `CC(=O)N[C@H]1C[C@@](C)(C(=O)Nc2c[nH]c3ccc(O[C@H]4C[C@@H](c5ccc(C(F)(F)F)cc5)C4)cc23)C1` [Compound 412, cis-3-acetamido-1-methyl-N-(5-(cis-3-(4-(trifluoromethyl)phenyl)cyclobutoxy)-1H-indol-3-yl)cyclobutane-1-carboxamide], for which the EC50 was in the range of 1000 to 5000 nM.
Then `CC(=O)Nc1c[nH]c2ccc(CCOc3ccc(C4CCC4)cc3)cc12` [Compound 230, N-(5-(2-(4-cyclobutylphenoxy)ethyl)-1H-indol-3-yl)acetamide], with 40 to 200 nM.
Consider `CC1(C(=O)Nc2c[nH]c3ccc(OCc4ccc(C(F)(F)F)cc4)cc23)CC1` [Compound 301, 1-methyl-N-(5-((4-(trifluoromethyl)benzyl)oxy)-1H-indol-3-yl)cyclopropane-1-carboxamide], for which the EC50 is 200 to 1000 nM.
